Measured values as given in patent US20230157996A1, “SMALL-MOLECULE INHIBITOR TARGETING EB VIRUS NUCLEAR ANTIGEN PROTEIN, PREPARATION METHOD AND USE THEREOF” (priority 2020, published 2023).

Test system: C666-1 cells
Experiment: C666-1 cell viability single concentration (50 μM) inhibition rate (Resazurin)
Assay type: cell-based
Conditions: 50 μM compound, 72 hours, C666-1 cells
Protocol: In order to assess the effect of the EBNA1 inhibitor at the cellular level, the cell proliferation inhibition rate was tested, and the inhibition rate of inhibitor at a specific concentration on the proliferation of Epstein-Barr virus positive cell line C666-1 was detected.
In the test, 100 μL C666-1 cells were inoculated in a transparent 96-well plate, and each well contained 5×10^3 cells. After the cells were cultured in an incubator with 5% carbon dioxide at 37° C. for 24 hours, 10 μL compound at a concentration of 500 μmol/L was added into the cells, so that the final concentration of the compound was 50 μmol/L. Two replicate wells were set for each compound, the wells treated with DMSO were set as control wells (Ctrl), and the wells with cell culture medium only were set as blank wells (blank), and they were treated in the incubator with carbon dioxide at 37° C. for 72 hours. The cell viability was assessed using a redox indicator Resazurin. Specifically, 10 μL Resazurin at a concentration of 600 umol/L was added into each well, and incubated at 37° C. for 3 hours, and a Tecan microplate reader was used to detect the fluorescence signal at an excitation wavelength of 560 nm and an emission wavelength of 590 nm. The formula inh %=1−(F−Fblank)/(FCtrl−Fblank)×100% (where, F is the fluorescence intensity of the compound-added wells, FCtrl and Fblank are the readings of the control wells and blank wells, respectively) was used to calculate the inhibition rate of the compound on the proliferation of C666-1 cells, so as to assess the activity of the compound on Epstein-Barr virus positive cells.

Structure (SMILES) | C666-1 cell viability single concentration (50 μM) inhibition rate, Ratio* (Inh %)
COC(=O)c1cccc(N2CC(Oc3ccccc3)C2)c1-n1cccc1 [Example 101, Methyl 3-(3-phenoxyazetidin-1-yl)-2-(1H-pyrrol-1-yl)benzoate] | +++ (30%-50% +++)
O=C([O-])c1cccc(N2CC(Oc3ccc([N+](=O)[O-])cc3)C2)c1-n1cccc1.[Na+] [Example 116, Sodium 3-(3-(4-nitrophenoxy)azetidin-1-yl)-2-(1H-pyrrol-1-yl)benzoate] | + (*Inh %: <10% +)

Same assay, conditions: Homo sapiens, C6661, 72 h, 50 μM compound, 72 hours, C666-1 cells; read-out: C666-1 cell viability single concentration (50 μM) inhibition rate, Ratio* (Inh %)

Structure (SMILES) | inhibition at 50 µM
COC(=O)c1cccc(N2CC(Oc3cccc(OC)c3)C2)c1-n1cccc1 [Compound 79, Methyl 3-(3-(3-methoxyphenoxy)azetidin-1-yl)-2-(1H-pyrrol-1-yl)benzoate] | 10 to 30%
COc1cccc(OC2CN(c3cccc(C(=O)O)c3-n3cccc3)C2)c1 [Compound 80, 3-(3-(3-methoxyphenoxy)azetidin-1-yl)-2-(1H-pyrrol-1-yl)benzoic acid] | < 10%
COC(=O)c1cccc(N2CC(Oc3ccc(C(F)(F)F)cc3)C2)c1-n1cccc1 [Compound 81, Methyl 2-(1H-pyrrol-1-yl)-3-(3-(4-(trifluoromethyl)phenoxy)azetidin-1-yl)benzoate] | 10 to 30%
O=C(O)c1cccc(N2CC(Oc3ccc(C(F)(F)F)cc3)C2)c1-n1cccc1 [Compound 82, 2-(1H-pyrrol-1-yl)-3-(3-(4-(trifluoromethyl)phenoxy)azetidin 1-yl)benzoic acid] | < 10%
COC(=O)c1cccc(N2CC(Oc3ccc(OC(F)(F)F)cc3)C2)c1-n1cccc1 [Compound 83, Methyl 2-(1H-pyrrol-1-yl)-3-(3-(4-(trifluoromethoxy)phenoxy)azetidin-1-yl)benzoate] | > 50%
O=C(O)c1cccc(N2CC(Oc3ccc(OC(F)(F)F)cc3)C2)c1-n1cccc1 [Compound 84, 2-(1H-pyrrol-1-yl)-3-(3-(4-(trifluoromethoxy)phenoxy)azetidin-1-yl)benzoic acid] | < 10%
COC(=O)c1cccc(N2CC(Oc3ccc(Cl)nc3)C2)c1-n1cccc1 [Compound 85, Methyl 3-(3-((6-chloropyridin-3-yl)oxy)azetidin-1-yl)-2-(1H-pyrrol-1-yl)benzoate] | > 50%
O=C(O)c1cccc(N2CC(Oc3ccc(Cl)nc3)C2)c1-n1cccc1 [Compound 86, 3-(3-((6-chloropyridin-3-yl)oxy)azetidin-1-yl)-2-(1H-pyrrol-1-yl)benzoic acid] | < 10%
COC(=O)c1cccc(N2CC(Oc3ccc(C(C)=O)cc3)C2)c1-n1cccc1 [Compound 87, Methyl 3-(3-(4-acetylphenoxy)azetidin-1-yl)-2-(1H-pyrrol-1-yl)benzoate] | > 50%
CC(=O)c1ccc(OC2CN(c3cccc(C(=O)O)c3-n3cccc3)C2)cc1 [Compound 88, 3-(3-(4-acetylphenoxy)azetidin-1-yl)-2-(1H-pyrrol-1-yl)benzoic acid] | < 10%
COC(=O)c1cccc(N2CC(Oc3ccc(C(C)O)cc3)C2)c1-n1cccc1 (centres unmarked) [Compound 89, Methyl 3-(3-(4-(1-hydroxyethyl)phenoxy)azetidin-1-yl)-2-(1H-pyrrol-1-yl)benzoate] | > 50%
CC(O)c1ccc(OC2CN(c3cccc(C(=O)O)c3-n3cccc3)C2)cc1 (centres unmarked) [Compound 90, 3-(3-(4-(1-hydroxyethyl)phenoxy)azetidin-1-yl)-2-(1H-pyrrol-1-yl)benzoic acid] | < 10%
COC(=O)c1cccc(N2CC(Oc3cc(Cl)nc(Cl)c3)C2)c1-n1cccc1 [Compound 91, Methyl 3-(3-((2,6-dichloropyridin-4-yl)oxy)azetidin-1-yl)-2-(1H-pyrrol-1-yl)benzoate] | < 10%
O=C(O)c1cccc(N2CC(Oc3cc(Cl)nc(Cl)c3)C2)c1-n1cccc1 [Compound 92, 3-(3-((2,6-dichloropyridin-4-yl)oxy)azetidin-1-yl)-2-(1H-pyrrol-1-yl)benzoic acid] | < 10%
COC(=O)c1cccc(N2CC(Oc3ccc(C#N)cc3)C2)c1-n1cccc1 [Compound 93, Methyl 3-(3-(4-cyanophenoxy)azetidin-1-yl)-2-(1H-pyrrol-1-yl)benzoate] | 30 to 50%
N#Cc1ccc(OC2CN(c3cccc(C(=O)O)c3-n3cccc3)C2)cc1 [Compound 94, 3-(3-(4-cyanophenoxy)azetidin-1-yl)-2-(1H-pyrrol-1-yl)benzoic acid] | < 10%
COC(=O)c1cccc(N2CC(Oc3ccc(Cl)cc3)C2)c1-n1cccc1 [Compound 95, Methyl 3-(3-(4-chlorophenoxy)azetidin-1-yl)-2-(1H-pyrrol-1-yl)benzoate] | < 10%
O=C(O)c1cccc(N2CC(Oc3ccc(Cl)cc3)C2)c1-n1cccc1 [Compound 96, 3-(3-(4-chlorophenoxy)azetidin-1-yl)-2-(1H-pyrrol-1-yl)benzoic acid] | < 10%

Structure (SMILES) | inhibition at 50 µM
COC(=O)c1cccc(N2CC(Oc3ccc(N(C)C)cc3)C2)c1-n1cccc1 [Example 97, Methyl 3-(3-(4-(dimethylamino)phenoxy)azetidin-1-yl)-2-(1H-pyrrol-1-yl)benzoate] | 10 to 30%
CN(C)c1ccc(OC2CN(c3cccc(C(=O)O)c3-n3cccc3)C2)cc1 [Example 98, 3-(3-(4-(dimethylamino)phenoxy)azetidin-1-yl)-2-(1H-pyrrol-1-yl)benzoic acid] | 10 to 30%
CCOc1ccc(OC2CN(c3cccc(C(=O)OC)c3-n3cccc3)C2)cc1 [Example 99, Methyl 3-(3-(4-ethoxyphenoxy)azetidin-1-yl)-2-(1H-pyrrol-1-yl)benzoate] | < 10%
CCOc1ccc(OC2CN(c3cccc(C(=O)O)c3-n3cccc3)C2)cc1 [Example 100, 3-(3-(4-ethoxyphenoxy)azetidin-1-yl)-2-(1H-pyrrol-1-yl)benzoic acid] | < 10%
O=C(O)c1cccc(N2CC(Oc3ccccc3)C2)c1-n1cccc1 [Example 102, 3-(3-phenoxyazetidin-1-yl)-2-(1H-pyrrol-1-yl)benzoic acid] | < 10%
COC(=O)c1cccc(N2CC(Oc3ccc4cc[nH]c4c3)C2)c1-n1cccc1 [Example 103, Methyl 3-(3-((1H-indol-6-yl)oxy)azetidin-1-yl)-2-(1H-pyrrol-1-yl)benzoate] | 10 to 30%
O=C(O)c1cccc(N2CC(Oc3ccc4cc[nH]c4c3)C2)c1-n1cccc1 [Example 104, 3-(3-((1H-indol-6-yl)oxy)azetidin-1-yl)-2-(1H-pyrrol-1-yl)benzoic acid] | < 10%
CCCOc1ccc(OC2CN(c3cccc(C(=O)OC)c3-n3cccc3)C2)cc1 [Example 105, Methyl 3-(3-(4-propoxyphenoxy)azetidin-1-yl)-2-(1H-pyrrol-1-yl)benzoate] | < 10%
CCCOc1ccc(OC2CN(c3cccc(C(=O)O)c3-n3cccc3)C2)cc1 [Example 106, 3-(3-(4-propoxyphenoxy)azetidin-1-yl)-2-(1H-pyrrol-1-yl)benzoic acid] | < 10%
CCCCOc1ccc(OC2CN(c3cccc(C(=O)OC)c3-n3cccc3)C2)cc1 [Example 107, Methyl 3-(3-(4-butoxyphenoxy)azetidin-1-yl)-2-(1H-pyrrol-1-yl)benzoate] | < 10%
CCCCOc1ccc(OC2CN(c3cccc(C(=O)O)c3-n3cccc3)C2)cc1 [Example 108, 3-(3-(4-butoxyphenoxy)azetidin-1-yl)-2-(1H-pyrrol-1-yl)benzoic acid] | < 10%
COC(=O)c1cccc(N2CC(Oc3ccc(OC(C)C)cc3)C2)c1-n1cccc1 [Example 109, Methyl 3-(3-(4-isopropoxyphenoxy)azetidin-1-yl)-2-(1H-pyrrol-1-yl)benzoate] | < 10%
CC(C)Oc1ccc(OC2CN(c3cccc(C(=O)O)c3-n3cccc3)C2)cc1 [Example 110, 3-(3-(4-isopropoxyphenoxy)azetidin-1-yl)-2-(1H-pyrrol-1-yl)benzoic acid] | < 10%
COC(=O)c1cccc(N2CC(Oc3ccc(Oc4ccccc4)cc3)C2)c1-n1cccc1 [Example 111, Methyl 3-(3-(4-phenoxyphenoxy)azetidin-1-yl)-2-(1H-pyrrol-1-yl)benzoate] | < 10%
O=C(O)c1cccc(N2CC(Oc3ccc(Oc4ccccc4)cc3)C2)c1-n1cccc1 [Example 112, 3-(3-(4-phenoxyphenoxy)azetidin-1-yl)-2-(1H-pyrrol-1-yl)benzoic acid] | < 10%
COC(=O)c1cccc(N2CC(Oc3ccc(COC4CCOCC4)cc3)C2)c1-n1cccc1 [Example 113, Methyl 2-(1H-pyrrol-1-yl)-3-(3-(4-(((tetrahydro-2H-pyran-4-yl)oxy)methyl)phenoxy)azetidin-1-yl)benzoate] | > 50%
COC(=O)c1cccc(N2CC(Oc3ccc(COc4ccccc4)cc3)C2)c1-n1cccc1 [Example 114, Methyl 3-(3-(4-(phenoxymethyl)phenoxy)azetidin-1-yl)-2-(1H-pyrrol-1-yl)benzoate] | 10 to 30%
O=C(O)c1cccc(N2CC(Oc3ccc(COc4ccccc4)cc3)C2)c1-n1cccc1 [Example 115, 3-(3-(4-(phenoxymethyl)phenoxy)azetidin-1-yl)-2-(1H-pyrrol-1-yl)benzoic acid] | < 10%
